Results taken from US20100311674A1, “PHARMACEUTICAL COMPOSITIONS WITH A MECHANISM OF MULTI-TARGET RECEPTOR RETROACTION FOR TREATING DEPRESSION” (Yu-Fen Chi, priority 2007, published 2010).

How the values were obtained:
Type in all cases: in vivo
ICR mice [1] = assay: Mouse tail-hanging experiment (Experiment 3)
Experimental: 3.1 Experimental animals: ICR mice, male, 22.0±2 g of body weight, secondary, are provided by the Experimental Animal Science Department of Capital Medical University, Beijing. 3.2 Experiment pharmaceuticals: The pharmaceutical of Embodiment 2 is provided by Beijing Wormer Biotech. […] High dose of Embodiment 2 (80 mg/kg/d); 2. middle dose of Embodiment 2 (40 mg/kg/d); and 3. low dose of Embodiment 2 (20 mg/kg/d). 3.5.1 Group division and administration of drug: The mice are grouped randomly, and 10 mice are in each group. 1. High dose of Embodiment 2 (80 mg/kg, P.O., administered for 7 days); 2. middle dose of Embodiment 2 (40 mg/kg, P.O., administered for 7 days); 3. low dose of Embodiment 2 (20 mg/kg, P.O., administered for 7 days); 4. […] After 1 hour of the last administration of drug, the mouse tail-hanging experiment is proceeded. 3.5.2 Experimental method: The mouse's tail (1 cm to the tail end) is taped on the wood strip higher than the platform for 5 cm and hung up for 6 minutes. The time of non-movement of the mouse for the last 5 minutes is recorded. 3.5.3 Statistic calculation: The experimental data are represented as X±SD, and the experimental result is calculated as ANOVA by SPSS 11.5 statistic software.

ICR mice [2] = assay: Mouse tail-hanging experiment (Experiment 9)
Experimental: 9.1 Experiment pharmaceuticals: The pharmaceutical of Embodiment 5 is provided by Beijing Wonner Biotech. […] Above-mentioned pharmaceuticals are prepared with physiological saline for feeding into the stomach. 9.2 Experimental animals: ICR mice, male, 20.0±1 g of body weight, secondary, are provided by the Experimental Animal Science Department of Capital Medical University, Beijing. The quality certificate number of mice is SOCK (DING) 2006-2008. […] The pharmaceuticals are fed into mouse's stomach once every day. After 1 hour of the last administration of drug on the eighth day, the mouse's tail (1 cm to the tail end) is taped on the horizontal support in an opened box, and the mouse represents the reversed hung status. The mouse head is away from the bottom of the opened box for about 10 cm, and the mouse is hung up for 6 minutes. The time of non-movement of the mouse for the last 5 minutes is recorded. 9.5 Statistic calculation: The experimental data are represented as X±SD, and the experimental result is calculated as one-way ANOVA by SPSS 11.5 statistic software.

ICR mice [3] = assay: Mouse tail-hanging experiment (Experiment 1)
Experimental: 1.1 Experimental animals: ICR mice, male, 22.0±2 g of body weight, secondary, are provided by the Experimental Animal Science Department of Capital Medical University, Beijing. 1.2 Experiment pharmaceuticals: The pharmaceutical of Embodiment 1 is provided by Beijing Wonner Biotech. […] High dose of Embodiment 1 (80 mg/kg/d); 2. middle dose of Embodiment 1 (40 mg/kg/d); and 3. low dose of Embodiment 1 (20 mg/kg/d). 1.5.1 Group division and administration of drug: The mice are grouped randomly, and 10 mice are in each group. 1. High dose of Embodiment 1 (80 mg/kg, per oral (P.O.), administered for 7 days); 2. middle dose of Embodiment 1 (40 mg/kg, P.O., administered for 7 days); 3. low dose of Embodiment 1 (20 mg/kg, P.O., administered for 7 days); 4. […] After 1 hour of the last administration of drug, the mouse tail-hanging experiment is proceeded. 1.5.2 Experimental method: The mouse's tail (1 cm to the tail end) is taped on the wood strip higher than the platform for 5 cm and hung up for 6 minutes. The time of non-movement of the mouse for the last 5 minutes is recorded. 1.5.3 Statistic calculation: The experimental data are represented as X±SD, and the experimental result is calculated as analysis of variance (ANOVA) by SPSS 11.5 statistic software.

[4] = test system: NE and 5-HT contents in the rat cerebral cortex; assay: HPLC-electrochemical test of NE and 5-HT contents in the rat cerebral cortex, unpredictable long-term stimulus model (Experiment 8); conditions: 2 mg/kg/d into the stomach, 24 days
Experimental: Unpredictable long-term stimulus model: Health Wistar male rats, secondary, 240˜270 g of body weight, are purchased from Beijing Vital River Experimental Animal Technology Ltd. Co. (The quality certificate number: SOCK (JING) 2002-2003).
The above pharmaceuticals are prepared with 0.5% of sodium carboxymethylcellulose (CMC-Na) for feeding into the stomach. Benzylpenicillin sodium for injection is the product of North China Pharmaceutical Huasheng Co. Ltd. (Lot: S0511204), and norepinephrine (NE) and 5-hydrotryptamine (5-HT) standards are the products of Sigma Co. Other reagents are all marketed.
8.4.1 Group division and administration of drug: The rats are grouped randomly into 6 groups. […] The test drugs and the positive control drug are prepared with 0.5% of CMC-Na for feeding into the stomach once every day.
Unpredictable long-term stimulus model: The rats in the control group eat and drink normally, and there is no stimulus performed. […]
8.5.6 HPLC-electrochemical test: The amounts of norepinephrine and 5-hydrotryptamine in the rat cerebral cortex are measured.
8.6 Statistic calculation: The experimental data are represented as 7±SD, and the experimental result is calculated as ANOVA by SPSS 11.5 statistic software.

ICR mice [5] = assay: Resetpine-induced mouse body temperature decrease experiment (Experiment 4)
Description: 4.1 Experimental animals: ICR mice, male, 22.0±2 g of body weight, secondary, are provided by the Experimental Animal Science Department of Capital Medical University, Beijing.
4.2 Experiment pharmaceuticals: The pharmaceutical of Embodiment 2 is provided by Beijing Wonner Biotech. Ltd. Co., Paroxetine (Paxil) is the product of Zhong Mei Tianjin Smith Kline pharmaceuticals Co. Ltd., and Resetpine is the product of Guangdong BangMin Pharmaceutical Co., Ltd.
4.4 Dose designs: 1. High dose of Embodiment 2 (80 mg/kg/d); 2. middle dose of Embodiment 2 (40 mg/kg/d); and 3. low dose of Embodiment 2 (20 mg/kg/d).
4.5.1 Group division and administration of drug: The mice are grouped randomly, and 10 mice are in each group. 1. High dose of Embodiment 2 (80 mg/kg, P.O., administered for 7 days); 2. middle dose of Embodiment 2 (40 mg/kg, P.O., administered for 7 days); 3. low dose of Embodiment 2 (20 mg/kg, P.O., administered for 7 days); 4.
4.5.2 Experimental method: After 1 hour of the last administration of drug on the eighth day, the mouse's anal temperature is determined. […] After 4 hours of injecting Resetpine, the mouse's anal temperature is determined once again. […]
4.5.3 Statistic calculation: The experimental data are represented as X±SD, and the experimental result is calculated as ANOVA by SPSS 11.5 statistic software.

[6] = 3 mg/kg P.O. 7 days, 1 h after last dose, last 5 of 6 min

Fc1ccc([C@@H]2CCNC[C@H]2COc2ccc3c(c2)OCO3)cc1 [Paroxetine]
Time of non-movement (ICR mice [1]; [6]): 75.33 ± 22.91 s
Effect on time of non-movement after the mouse's tail is hung up (in words) (ICR mice [1]; middle dose of Embodiment 2, Paroxetine, significantly different from control): decrease the time of non-movement
Time of non-movement (ICR mice [2]; 3 mg/kg/d into the stomach, 1 h after last dose on the eighth day, last 5 of 6 min): 53.27 ± 20.02 s
Effect on accumulative time of non-movement, tail-hanging (in words) (ICR mice [2]; high, middle and low doses of Embodiment 5, Paroxetine): obviously decrease the accumulative time of non-movement
Time of non-movement (ICR mice [3]; [6]): 75.33 ± 22.91 s
Effect on time of non-movement after the mouse's tail is hung up (in words) (ICR mice [3]; high and middle doses of Embodiment 1, Paroxetine, significantly different from control): decrease the time of non-movement
NE [4]: 220.5419 ± 38.32 nmol/L brain tissue extract
Decreased temperature (ICR mice [5]; 3 mg/kg P.O. 7 days, 4 h after Resetpine 2 mg/kg i.p.): 2.38 ± 0.69 °C
Effect on reduced body temperature induced by Resetpine (in words) (ICR mice [5]; middle dose of Embodiment 2, Paroxetine): decrease the reduced body temperature induced by Resetpine
